# Experimental data taken from patent US20200172473A1, “DUAL MODULATORS OF FARNESOID X RECEPTOR AND SOLUBLE EPOXIDE HYDROLASE” (JOHANN WOLFGANG GOETHE-UNIVERSITÄT FRANKFURT AM MAIN, priority 2017, published 2020).
# Read-outs that look alike come from different tables or passages of the source.
# Tests used:
# [1] = target: T1, PPARγ (Homo sapiens, UniProt P37231); experiment: Gal4-hybrid reporter gene assay PPARγ in HEK293T cells; type: cell-based
# T1 construct: pFA-CMV-hPPARγ-LBD; expressed in transfected cells; host or cells: HEK293T
# T1 sequence (P37231 238-503 limits assumed): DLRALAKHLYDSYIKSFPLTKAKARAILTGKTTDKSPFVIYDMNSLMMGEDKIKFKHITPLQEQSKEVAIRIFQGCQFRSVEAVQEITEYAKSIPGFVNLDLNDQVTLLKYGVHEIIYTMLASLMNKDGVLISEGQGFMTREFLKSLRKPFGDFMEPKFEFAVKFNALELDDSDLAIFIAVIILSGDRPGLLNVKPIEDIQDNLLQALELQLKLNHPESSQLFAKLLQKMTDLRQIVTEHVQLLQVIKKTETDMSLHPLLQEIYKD
# Description: (§1) Hybrid reporter gene assays for PPARα/γ/δ, LXRα/β, RXRα/β/γ, RARα/β/γ, VDR and PXR Plasmids: The Gal4-fusion receptor plasmids pFA-CMV-hPPARα-LBD^52, pFA-CMV-hPPARγ-LBD^52, pFA-CMV-hPPARδ-LBD^52, pFA-CMV-hLXRα-LBD^32 and pFA-CMV-hLXRβ-LBD^32 have been reported previously. […] Frame and sequence of all fusion receptors were verified by sequencing. pFR-Luc (Stratagene) was used as reporter plasmid and pRL-SV40 (Promega) for normalization of transfection efficiency and cell growth.
# Assay procedure: HEK293T cells were grown in DMEM high glucose, supplemented with 10% FCS, sodium pyruvate (1 mM), penicillin (100 U/mL) and streptomycin (100 μg/mL) at 37° C. and 5% CO2. The day before transfection, HEK293T cells were seeded in 96-well plates (2.5·10^4 cells/well). Before transfection, medium was changed to Opti-MEM without supplements. Transient transfection was carried out using Lipofectamine LTX reagent (Invitrogen) according to the manufacturer's protocol with pFR-Luc (Stratagene), pRL-SV40 (Promega) and pFA-CMV-hRXRα-LBD. 5 h after transfection, medium was changed to Opti-MEM supplemented with penicillin (100 U/mL), streptomycin (100 μg/mL), now additionally containing 0.1% DMSO and the respective test compound or 0.1% DMSO alone as untreated control. Each concentration was tested in triplicates and each experiment was repeated independently at least three times. […] Luminescence was measured with an Infinite M200 luminometer (Tecan Deutschland GmbH). […] Fold activation was obtained by dividing the mean RLU of a test compound at a respective concentration by the mean RLU of untreated control. Relative activation was obtained by dividing the fold activation of a test compound at a respective concentration by the fold activation of a respective reference agonist at 1 μM (PPARα: GW7647; PPARγ: pioglitazone; PPARδ: L165,041; LXRα/β: T0901317; RXRs: bexarotene; RARs: tretinoin; VDR calcitriol; PXR: SR12813).
# [2] = target: T2, PPARδ (Homo sapiens, UniProt Q03181); experiment: Gal4-hybrid reporter gene assay PPARδ in HEK293T cells; type: cell-based; conditions: 10 μM
# T2 construct: pFA-CMV-hPPARδ-LBD; expressed in transfected cells; host or cells: HEK293T
# T2 sequence (Q03181 211-439 limits assumed): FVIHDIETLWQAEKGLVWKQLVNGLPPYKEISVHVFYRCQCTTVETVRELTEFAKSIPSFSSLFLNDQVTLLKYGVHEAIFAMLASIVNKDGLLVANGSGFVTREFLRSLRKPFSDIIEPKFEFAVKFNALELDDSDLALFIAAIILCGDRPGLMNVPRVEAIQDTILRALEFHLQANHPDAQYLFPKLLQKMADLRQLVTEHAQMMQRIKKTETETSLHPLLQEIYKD
# Description: as §1
# Assay procedure: HEK293T cells were grown in DMEM high glucose, supplemented with 10% FCS, sodium pyruvate (1 mM), penicillin (100 U/mL) and streptomycin (100 μg/mL) at 37° C. and 5% CO2. The day before transfection, HEK293T cells were seeded in 96-well plates (2.5·10^4 cells/well). Before transfection, medium was changed to Opti-MEM without supplements. Transient transfection was carried out using Lipofectamine LTX reagent (Invitrogen) according to the manufacturer's protocol with pFR-Luc (Stratagene), pRL-SV40 (Promega) and pFA-CMV-hRXRα-LBD. 5 h after transfection, medium was changed to Opti-MEM supplemented with penicillin (100 U/mL), streptomycin (100 μg/mL), now additionally containing 0.1% DMSO and the respective test compound or 0.1% DMSO alone as untreated control. […] Luminescence was measured with an Infinite M200 luminometer (Tecan Deutschland GmbH). […]
# [3] = system: FXR target genes
# Method: Data was analyzed according to the 2^ΔΔCt method and all results were normalized to the values of the house-keeping gene glycerinaldehyde 3-phosphate dehydrogenase (GAPDH). Gene expression of vehicle treated control cells was defined as 100%.
# Two micrograms of total RNA were extracted from HepG2 cells by the Total RNA Mini Kit (R6834-02, Omega Bio-Tek, Inc., Norcross, Ga., USA). […] FXR target gene expression was evaluated by quantitative real time PCR analysis with a StepOnePlus™ System (Life Technologies, Carlsbad, Calif., USA) using PowerSYBRGreen (Life Technologies; 12.5 μL per well). The primers are listed in the supporting information. Each sample was set up in duplicates and repeated in at least three independent experiments. The expression was quantified by the comparative ΔΔCt method and glycerinaldehyde 3-phosphate dehydrogenase (GAPDH) served as reference gene.
# [4] = system: PPARγ target gene FATP; experiment: PPARγ target gene FATP mRNA quantification from mouse livers; type: in vivo; conditions: 10 mg/kg p.o., 8 h post dose; vehicle 101±1
smiles,measurement,setting,value
"CC(C)(C)c1ccc(C(=O)NCc2ccc(NS(C)(=O)=O)cc2Cl)cc1 [compound 57, 4-(tert-Butyl)-N-(2-chloro-4-(methylsulfonamido)benzyl)benzamide]",selectivity for FXR amongst nuclear receptors,[1],≥ 720
same,PPARγ max. activation,[1]; relative to pioglitazone at 1 μM,30±1%
same,EC50,[1]; weak partial agonism,14.7 ± 0.9 µM
same,activity on PPARδ,[2],inactive
same,BSEP mRNA expression compared to vehicle set as 100%,"[3]; HepG2, 0.1 μM, 8 or 16 h",216±18%
same,FABP1 mRNA expression compared to vehicle set as 100%,"[3]; HepG2, 0.1 μM, 8 or 16 h",183±34%
same,FAS mRNA expression compared to vehicle set as 100%,"[3]; HepG2, 0.1 μM, 8 or 16 h",22±8%
same,FGF19 mRNA expression compared to vehicle set as 100%,"[3]; HepG2, 0.1 μM, 8 or 16 h",309±101%
same,PDK4 mRNA expression compared to vehicle set as 100%,"[3]; HepG2, 0.1 μM, 8 or 16 h",255±54%
same,PPARα mRNA expression compared to vehicle set as 100%,"[3]; HepG2, 0.1 μM, 8 or 16 h",170±11%
same,SHP mRNA expression compared to vehicle set as 100%,"[3]; HepG2, 0.1 μM, 8 or 16 h",242±61%
same,SREBP1c mRNA expression compared to vehicle set as 100%,"[3]; HepG2, 0.1 μM, 8 or 16 h",49±17%
same,BSEP mRNA expression compared to vehicle set as 100%,"[3]; HepG2, 1 μM, 8 or 16 h",222±20%
same,FABP1 mRNA expression compared to vehicle set as 100%,"[3]; HepG2, 1 μM, 8 or 16 h",194±42%
same,FGF19 mRNA expression compared to vehicle set as 100%,"[3]; HepG2, 1 μM, 8 or 16 h",325±77%
same,PDK4 mRNA expression compared to vehicle set as 100%,"[3]; HepG2, 1 μM, 8 or 16 h",226±57%
same,PPARα mRNA expression compared to vehicle set as 100%,"[3]; HepG2, 1 μM, 8 or 16 h",211±10%
same,SHP mRNA expression compared to vehicle set as 100%,"[3]; HepG2, 1 μM, 8 or 16 h",317±78%
same,"amplitude of induction of SHP, PPARα, FGF19, PDK4 and FABP1 relative to CDCA (1b)","[3]; HepG2, % of CDCA (1b) at 50 μM",50-80%
same,FATP mRNA in mouse liver compared to vehicle set as 100%,[4],not affected
